In paper PMC6283615, “Anilinoquinoline based inhibitors of trypanosomatid proliferation” (PLoS Neglected Tropical Diseases, 2018):
In brackets after ≈: the same amount, converted by molar mass. Read-outs that look alike come from different tables or passages of the source.

Key:
[1] = Rat hepatocyte intrinsic clearance; type: in vitro ADME; conditions: for hepatocyte CLint: hepatocytes
Aqueous solubility = type: physicochemical
[2] = test system: T. vivax STIB 719 / ILRAD 560; assay: Ex vivo drug sensitivity assay for T. vivax (48 h); type: cell-based; conditions: Trypanosoma vivax, STIB719, 48 h
Method: Ex vivo drug sensitivity assay for T. vivax (48 h): Compounds were tested ex vivo against the STIB 719 / ILRAD 560 T. vivax (drug sensitive) strain which originated from the Y486 strain, isolated from a naturally infected bovine in 1976 in Zaria, Nigeria. Compounds were assayed in at least three separate, independent experiments and an 11-point dilution curve was used to determine the EC50 values. Bloodstream form trypanosomes were harvested from a highly parasitaemic mouse (via cardiac puncture) and were incubated with test compounds for 45 h at 37°C in a humidified atmosphere containing 5% CO2, supported in HMI-9 medium containing 20% bovine serum. Thereafter, Resazurin dye was added to monitor trypanosome viability as described in the preceding section.

L. major amastigote = assay: L. major intracellular amastigote luciferase assay in RAW 264.7 macrophages; type: cell-based, Leishmania major; conditions: intracellular amastigotes in RAW 264.7 macrophages, 96 h
Outline: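 Murine RAW 264.7 macrophages were infected overnight with luciferase-expressing L. major metacyclic promastigotes (MOI 1:10). Non-internalized parasites were washed off before 96 h compound exposure (0.5–10,000 ng/mL) at 37°C, 5% CO2.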

T. congolense IL3000 = assay: In vitro drug sensitivity assay for T. congolense (72 h); type: cell-based; conditions: Trypanosoma congolense, IL3000 strain
Method: In vitro drug sensitivity assay for T. congolense (72 h): Compounds were tested in vitro for efficacy against the IL3000 T. congolense (drug sensitive) strain which was originally derived from the Trans Mara I strain, isolated from a bovine in 1966 in Kenya. […] Compounds were assayed in at least three separate, independent experiments and an 11-point dilution curve was used to determine the EC50 values. Bloodstream form trypanosomes were supported in HMI-9 medium containing 20% bovine serum and were incubated with test compounds for 69 h at 34°C in a humidified atmosphere containing 5% CO2. Thereafter, 10 μL of Resazurin dye (12.5 mg in 100 mL of phosphate-buffered saline, Sigma-Aldrich, Buchs, Switzerland) was added for an additional 3 h. Plates were read using a fluorescence plate reader (Spectramax, Gemini XS, Bucher Biotec, Basel, Switzerland) using an excitation wavelength of 536 nm and an emission wavelength of 588 nm.

[3] = test system: T. cruzi amastigote (Tulahuen strain expressing β-galactosidase); assay: Intracellular T. cruzi assay in 3T3 cells (beta-galactosidase, 96 h); type: cell-based, Trypanosoma cruzi; conditions: for EC50: read-out: T. cruzi amastigote EC50
Outline: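 3T3 cells in phenol-red-free DMEM with 2% FBS were infected with Tulahuen β-galactosidase trypomastigotes, 5×10^4 per well, and exposed to compounds from 50 μM in 1:2 serial dilutions, in triplicate. After 96 h at 37°C, 5% CO2, 500 μM CPRG in PBS with 0.5% NP40 was added for 4 h; absorbance was read at 590–595 nm.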

[4] = test system: T. b. brucei (strain 427); assay: T. b. brucei proliferation assay (PrestoBlue, 48 h); type: cell-based, Trypanosoma brucei brucei
Outline: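 Viability read by PrestoBlue fluorescence (530/590 nm) after 4 h with reagent, following 48 h compound exposure at 37°C, 5% CO2. Parasites (strain 427, 2.5×10^3 per well, HMI-9 medium) received triplicate 1:2 serial dilutions starting at 50 μM.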

LogD7.4 = type: physicochemical; conditions: pH 7.4
[5] = Human liver microsome intrinsic clearance; type: in vitro ADME; conditions: for microsomal CLint: liver microsomes
P. fal. D6 = test system: P. fal. D6; set-up: method as in PMID 26087257, PMID 29301082; conditions: previously reported; cited from earlier work
[6] = Human plasma protein binding; type: in vitro ADME; conditions: for fraction unbound: read-out: Human PPB (converted)
NIH/3T3 cells = assay: Drug toxicity to 3T3 cells (Alamar Blue, 96 h); type: cell-based
Method: In a 96-well plate, 5×10^4 NIH/3T3 (ATCC CRL-1658) cells (purchased from ATCC) in DMEM without phenol red supplemented with 2% FBS were added to each well. Cells were incubated for 2 h to allow for attachment. Compounds were added in triplicates at 200 μM and in serial dilutions 1:2 and incubated at 37°C, 5% CO2 for 96 h. […] Following incubation, 10 μL of Alamar Blue (ThermoFisher) were added to each well and cells incubated at 37°C, 5% CO2 for 4 h. Absorbance was read at 590–595 nm.

HepG2 cells = assay: Drug toxicity to HepG2 cells (MTT, 48 h); type: cell-based, human; conditions: tested concentration ranges based on compound solubility
Method: HepG2 cells were cultured in complete Minimal Essential Medium prepared by supplementing MEM with 0.19% sodium bicarbonate, 10% heat inactivated FBS, 2 mM L-glutamine, 0.1 mM MEM non-essential amino, 0.009 mg/mL insulin, 1.76 mg/mL bovine serum albumin, 20 units/mL penicillin–streptomycin, and 0.05 mg/mL gentamycin. HepG2 cells cultured in complete MEM were first washed with 1× Hank’s Balanced Salt Solution (Invitrogen #14175095), trypsinized using a 0.25% trypsin/EDTA solution, assessed for viability using trypan blue, and resuspended at 250,000 cells/mL. Using a Tecan EVO Freedom robot, 38.3 μL of cell suspension were added to each well of clear, cell culture-treated 384-well microtiter plates for a final concentration of 9570 liver cells per well, and plated cells were incubated overnight in 5% CO2 at 37°C. Drug plates were prepared with the Tecan EVO Freedom using sterile 96 well plates containing twelve duplicate 1.6-fold serial dilutions of each test compound suspended in DMSO. 4.25 μL of diluted test compound was then added to the 38.3 μL of media in each well providing a […] final dilution of compound. Compounds were tested from a range of 57 ng/mL to 10,000 ng/mL for all assays. Mefloquine was used as a plate control for all assays with a concentration ranging from 113 ng/mL to 20,000 ng/mL. After a 48 h incubation period, 8 μL of a 1.5 mg/mL solution of MTT diluted in complete MEM media was added to each well. All plates were subsequently incubated in the dark for 1 h at room temperature. After incubation, the media and drugs in each well was removed by shaking the plate over sink, and the plates were left to dry in a fume hood for 15 mins. Next, 30 μL of isopropanol acidified by addition of HCl at a final concentration of 0.36% was added to dissolve the formazan dye crystals created by reduction of MTT. Plates are put on a 3-D rotator for 15–30 mins. Absorbance was determined in all wells using a Tecan iControl 1.6 Infinite plate reader.

[7] = Trypanosoma cruzi, TULAHUEN, NIH3T3, 96 h
[8] = intracellular in 3T3 cells, 96 h

| Structure (SMILES) | hepatocyte CLint [1] [µL/min/1e6 cells] | solubility (Aqueous solubility) [µM] | EC50 [2] [nM] | EC50 (L. major amastigote; Leishmania major, RAW264.7) [nM] | EC50 (T. congolense IL3000) [nM] | EC50 [3, 7] [nM] | EC50 ([4]; Trypanosoma brucei) [nM] | logD (LogD7.4) | microsomal CLint [5] [µL/min/mg] | Rat Hepatocyte CLint [1] [μL/min/10^6 cells] | Human PPB [6] [%] | 3T3 TC50 (NIH/3T3 cells) [nM] | HepG2 TC50 (HepG2 cells) [nM] | LogD7.4 (LogD7.4) | Human Liver Microsome CLint [5] [µL/min/mg] | EC50 (L. major amastigote) [nM] | EC50 [3, 8] [nM] | EC50 [4] [nM] | further results |
| --- | --- | --- | --- | --- | --- | --- | --- | --- | --- | --- | --- | --- | --- | --- | --- | --- | --- | --- | --- |
| CN1CCN(c2nsnc2-c2ccc3c(Nc4ccc(OCc5cccc(F)c5)c(Cl)c4)ccnc3c2)CC1 [Compound 15] | 35 | < 0.1 | 210 | 960 | 390 | 4700 | 140 | 4.1 | 35 |  |  |  |  |  |  |  |  |  |  |
| CN1CCN(S(=O)(=O)c2ccc(-c3ccc4c(Nc5ccc(OCc6cccc(F)c6)c(Cl)c5)ccnc4c3)cc2)CC1 [Compound 1] |  | 0.3 (≈ 0.185 µg/mL) | 40 | 1600 | 140 | 730 | 79 |  | 140 | 20 |  |  |  |  |  |  |  |  | EC50 (P. fal. D6): 19 nM; fraction unbound [6]: < 0.01 |
| COc1ccc(Nc2ccnc3cc(-c4ccc(S(=O)(=O)N5CCN(C)CC5)cc4)ccc23)cc1Cl [Compound 6] | 44 | 100 (≈ 52.3 µg/mL) | 160 | 1400 | 860 | 3800 | 220 | < 1 | 270 |  | 99 |  |  |  |  |  |  |  |  |
| Fc1cccc(COc2ccc(Nc3ccnc4cc(-c5cn[nH]c5)ccc34)cc2Cl)c1 [Compound 16] | 17 | 12 (≈ 5.34 µg/mL) | 150 | 830 | 470 | 920 | 110 | 4.6 | < 3 |  |  |  |  |  |  |  |  |  | SI (T. cruzi) ([3]; selectivity index calculated relative to 3T3 cells): 2.5; fraction unbound [6]: < 0.01 |
| CC[n+]1c(-c2ccccc2)c2cc(N/N=N/c3cccc(C(=N)N)c3)ccc2c2ccc(N)cc21 [Isometamidium, isometamidium chloride, reference compound] |  |  | 0.12 |  | 6 |  |  |  |  |  |  |  |  |  |  |  |  |  |  |
| N=C(N)c1ccc(/N=N/Nc2ccc(C(=N)N)cc2)cc1 [Diminazene, diminazene aceturate, reference compound] |  |  | 100 |  | 130 |  | 9 |  |  |  |  |  |  |  |  |  |  |  |  |
| CC(C)(C)OC(=O)Nc1ccc2c(Nc3ccc(OCc4cccc(F)c4)c(Cl)c3)ccnc2c1 [Compound 21] | 48 | 0.2 (≈ 0.0988 µg/mL) | 290 | 1100 | 830 | 600 | 150 | 4.3 | 29 |  |  |  |  |  |  |  |  |  |  |
| COc1ccc(Nc2ccnc3cc(-c4cnc(N5CCN(C)CC5)nc4)ccc23)cc1Cl [Compound 23] | 45 | < 1 | 40 | 2000 | 140 | 620 |  |  |  |  | 98 | 4900 | > 3000 | 4.3 | 170 |  |  |  |  |
| c1cnc(Nc2ccnc3cc(Nc4nccnn4)ccc23)cn1 [NEU-2145] |  | 3 (≈ 0.949 µg/mL) |  |  |  |  |  |  |  | > 300 | 75 | > 50000 | 11000 | 2.1 | 42 | 28000 | > 50000 | 4700 |  |
| Cn1nccc1Nc1ccc2c(Nc3cnccn3)ccnc2c1 [NEU-2144] |  | 100 (≈ 31.7 µg/mL) |  |  |  |  |  |  |  | 16 | 69 | > 50000 | 35000 | 2.4 | 10 | 28000 | > 50000 | 14000 |  |
| Cc1cnc(Nc2ccc3c(Nc4cnccn4)ccnc3c2)s1 [NEU-2149] |  | 1 (≈ 0.334 µg/mL) |  |  |  |  |  |  |  | > 300 | 96 | > 50000 | 5000 | 3.7 | 54 | 5300 | > 50000 | 2300 |  |
| Cc1ccc(-c2ccc3c(Nc4cnccn4)ccnc3c2)o1 [NEU-2133] |  | 4 (≈ 1.21 µg/mL) |  |  |  |  |  |  |  | 290 | 99 | > 50000 | 50000 | 4 | 190 | 33000 | 790 | 5300 |  |
